Structures are written as SMILES. Numbered stars: 1 amine (or outer) side, 2 acyl side, 3 side chain; on linkers, the order of the positions; unused ones are H or OH. Bridge positions count the residues as written; N and C are the ends. Square brackets hold non-standard residues; d marks the D form. Peptide text beside a SMILES is read from it. * marks the point of attachment. Ala(imidazo(1,2-a)pyr3yl) = N[C@@H](Cc1cnc2ccccn12)C(=O)O; Trp(1-CH2COOH) = N[C@@H](Cc1cn(CC(=O)O)c2ccccc12)C(=O)O; NMePhe(4-COOH) = CN[C@@H](Cc1ccc(C(=O)O)cc1)C(=O)O; X7 = CN([C@@H](Cc1cccc(C(=O)O)c1)C(=O)[*:2])[*:1]; Nle(6-morpholino) = N[C@@H](CCCCN1CCOCC1)C(=O)O; Phe(3-COOH) = N[C@@H](Cc1cccc(C(=O)O)c1)C(=O)O; NMePhe(3-Cl) = CN[C@@H](Cc1cccc(Cl)c1)C(=O)O; 3Pal(6-OMe) = COc1ccc(C[C@H](N)C(=O)O)cn1; 3Pal(6-NH2) = Nc1ccc(C[C@H](N)C(=O)O)cn1; Tyr(3-Me) = Cc1cc(C[C@H](N)C(=O)O)ccc1O; NMeY = CN[C@@H](Cc1ccc(O)cc1)C(=O)O; Nva(3-Et) = CCC(CC)[C@H](N)C(=O)O; PEG4 = NCCOCCOCCOCCOCCC(=O)O; Carboxymethyl = O=C(O)C*

T1 sequence (P02786 whole entry): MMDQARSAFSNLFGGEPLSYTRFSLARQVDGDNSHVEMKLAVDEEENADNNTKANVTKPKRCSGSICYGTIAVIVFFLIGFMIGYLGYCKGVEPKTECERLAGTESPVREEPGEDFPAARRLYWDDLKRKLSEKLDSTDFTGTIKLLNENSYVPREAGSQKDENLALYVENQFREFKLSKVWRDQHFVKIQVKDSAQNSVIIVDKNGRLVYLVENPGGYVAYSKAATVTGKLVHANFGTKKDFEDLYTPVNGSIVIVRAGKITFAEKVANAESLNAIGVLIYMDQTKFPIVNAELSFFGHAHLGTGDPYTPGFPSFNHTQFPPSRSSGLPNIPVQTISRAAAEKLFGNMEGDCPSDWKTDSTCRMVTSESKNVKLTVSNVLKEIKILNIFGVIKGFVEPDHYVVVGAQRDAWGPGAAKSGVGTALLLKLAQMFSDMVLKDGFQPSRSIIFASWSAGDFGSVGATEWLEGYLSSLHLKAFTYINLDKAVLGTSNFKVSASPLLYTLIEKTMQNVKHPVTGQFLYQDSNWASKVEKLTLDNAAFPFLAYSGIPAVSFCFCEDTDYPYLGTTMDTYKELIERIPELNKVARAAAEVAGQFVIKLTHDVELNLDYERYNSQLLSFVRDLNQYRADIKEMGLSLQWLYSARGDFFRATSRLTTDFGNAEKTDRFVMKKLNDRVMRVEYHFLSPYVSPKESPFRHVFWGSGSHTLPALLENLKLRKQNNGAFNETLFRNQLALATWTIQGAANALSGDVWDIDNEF

One test addresses T1, human transferrin receptor (hTfR) (Homo sapiens, UniProt P02786). Description: Evaluation of pH dependence (ratio of SPR koff or KD at pH 6.0 to pH 7.4). Type of test: binding. As to conditions: ratio of koff at pH 6.0 to pH 7.4. As to the method: The ratio of the calculated koff or KD values under pH 6.0 conditions to those under pH 7.4 conditions was calculated to check pH dependency.
Consider `CC[C@H](C)[C@@H]1NC(=O)[C@H](Cc2ccc(OCC(=O)O)cc2)NC(=O)[C@H](Cc2ccc(O)cc2)NC(=O)[C@H](CC(N)=O)NC(=O)[C@H](Cc2c[nH]c3ccccc23)NC(=O)[C@H](C(C)C)NC(=O)[C@H](Cc2cccc(Cl)c2)N(C)C(=O)[C@H](C(C)C)NC(=O)[C@H](C)NC(=O)CSC[C@@H](C(=O)NCCOCCOCCOCCOCCC(N)=O)NC(=O)[C@H](Cc2ccc(O)cc2)N(C)C(=O)[C@H](Cc2cccc(C(=O)O)c2)NC(=O)[C@H](CCCNC(=N)N)NC(=O)[C@H](CCC(N)=O)NC(=O)[C@H]([C@@H](C)CC)NC1=O` [compound 72] ({CH2CO}-AV[NMePhe(3-Cl)]VWNYY(Carboxymethyl)IIQR[Phe(3-COOH)][NMeY]C[PEG4]-NH2; thioether N-15), for which the “dependency koff pH6.0/7.4” value is 5.72.
With `CC[C@H](C)[C@@H]1NC(=O)[C@H](Cc2ccc(OC)cc2)NC(=O)[C@H](Cc2ccc(O)cc2)NC(=O)[C@H](CC(N)=O)NC(=O)[C@H](Cc2c[nH]c3ccccc23)NC(=O)[C@H](C(C)C)NC(=O)[C@H](Cc2cccc(Cl)c2)N(C)C(=O)[C@H](C(C)C)NC(=O)[C@H](C)NC(=O)CSC[C@@H](C(=O)NCCOCCOCCOCCOCCC(N)=O)NC(=O)[C@H](Cc2ccc(C(=O)O)cc2)N(C)C(=O)[C@H](Cc2cccc(C(=O)O)c2)NC(=O)[C@H](CCCNC(=N)N)NC(=O)[C@H](CCC(N)=O)NC(=O)[C@H]([C@@H](C)CC)NC1=O` [compound 80] ({CH2CO}-AV[NMePhe(3-Cl)]VWNYY(Me)IIQR[Phe(3-COOH)][NMePhe(4-COOH)]C[PEG4]-NH2; thioether N-15), the “dependency koff pH6.0/7.4” value is 22.20.
Take `CC[C@H](C)[C@@H]1NC(=O)[C@H](Cc2ccc(OC)cc2)NC(=O)[C@H](Cc2ccc(O)cc2)NC(=O)[C@H](CC(N)=O)NC(=O)[C@H](Cc2c[nH]c3ccccc23)NC(=O)[C@H](C(C)C)NC(=O)[C@H](Cc2cccc(Cl)c2)N(C)C(=O)[C@H](C(C)C)NC(=O)[C@H](C)NC(=O)CSC[C@@H](C(=O)NCCOCCOCCOCCOCCC(N)=O)NC(=O)[C@H](Cc2cccc(C(=O)O)c2)N(C)C(=O)[C@H](Cc2cccc(C(=O)O)c2)NC(=O)[C@H](CCCNC(=N)N)NC(=O)[C@H](CCC(N)=O)NC(=O)[C@H]([C@@H](C)CC)NC1=O` [compound 81] ({CH2CO}-AV[NMePhe(3-Cl)]VWNYY(Me)IIQR[Phe(3-COOH)][X7]C[PEG4]-NH2; thioether N-15): the “dependency koff pH6.0/7.4” value turned out to be 13.49.
Consider `CCC(CC)[C@@H]1NC(=O)[C@H](Cc2ccc(OCC(=O)O)cc2)NC(=O)[C@H](Cc2ccc(N)nc2)NC(=O)[C@H](CC(N)=O)NC(=O)[C@H](Cc2cn(CC(=O)O)c3ccccc23)NC(=O)[C@H](C(C)C)NC(=O)[C@H](Cc2cccc(Cl)c2)N(C)C(=O)[C@H](C(C)C)NC(=O)[C@H](C)NC(=O)CSC[C@@H](C(=O)NCCOCCOCCOCCOCCC(N)=O)NC(=O)[C@H](Cc2ccc(C(=O)O)cc2)N(C)C(=O)[C@H](Cc2cccc(C(=O)O)c2)NC(=O)[C@H](CCCCN2CCOCC2)NC(=O)[C@H](CCCCN2CCOCC2)NC(=O)[C@H]([C@@H](C)CC)NC1=O` [compound 86] ({CH2CO}-AV[NMePhe(3-Cl)]V[Trp(1-CH2COOH)]N[3Pal(6-NH2)]Y(Carboxymethyl)[Nva(3-Et)]I[Nle(6-morpholino)][Nle(6-morpholino)][Phe(3-COOH)][NMePhe(4-COOH)]C[PEG4]-NH2; thioether N-15), for which the “dependency koff pH6.0/7.4” value was 28.16.
Still for that read-out and setting: the result for `CCC(CC)[C@@H]1NC(=O)[C@H](Cc2ccc(OCC(=O)O)cc2)NC(=O)[C@H](Cc2ccc(O)c(C)c2)NC(=O)[C@H](CC(N)=O)NC(=O)[C@H](Cc2cn(CC(=O)O)c3ccccc23)NC(=O)[C@H](C(C)C)NC(=O)[C@H](Cc2cccc(Cl)c2)N(C)C(=O)[C@H](C(C)C)NC(=O)[C@H](C)NC(=O)CSC[C@@H](C(=O)NCCOCCOCCOCCOCCC(N)=O)NC(=O)[C@H](Cc2ccc(O)cc2)N(C)C(=O)[C@H](Cc2cccc(C(=O)O)c2)NC(=O)[C@H](CCCNC(=N)N)NC(=O)[C@H](CCC(N)=O)NC(=O)[C@H]([C@@H](C)CC)NC1=O` [compound 89] ({CH2CO}-AV[NMePhe(3-Cl)]V[Trp(1-CH2COOH)]N[Tyr(3-Me)]Y(Carboxymethyl)[Nva(3-Et)]IQR[Phe(3-COOH)][NMeY]C[PEG4]-NH2; thioether N-15) reads 8.08; that for `CCC(CC)[C@@H]1NC(=O)[C@H](Cc2ccc(OC)nc2)NC(=O)[C@H](Cc2ccc(O)cc2)NC(=O)[C@H](CC(N)=O)NC(=O)[C@H](Cc2cn(CC(=O)O)c3ccccc23)NC(=O)[C@H](C(C)C)NC(=O)[C@H](Cc2cccc(Cl)c2)N(C)C(=O)[C@H](C(C)C)NC(=O)[C@H](C)NC(=O)CSC[C@@H](C(=O)NCCOCCOCCOCCOCCC(N)=O)NC(=O)[C@H](Cc2ccc(O)cc2)N(C)C(=O)[C@H](Cc2cccc(C(=O)O)c2)NC(=O)[C@H](CCCNC(=N)N)NC(=O)[C@H](CCC(N)=O)NC(=O)[C@H]([C@@H](C)CC)NC1=O` [compound 90] ({CH2CO}-AV[NMePhe(3-Cl)]V[Trp(1-CH2COOH)]NY[3Pal(6-OMe)][Nva(3-Et)]IQR[Phe(3-COOH)][NMeY]C[PEG4]-NH2; thioether N-15), 8.01.
With `CCC(CC)[C@@H]1NC(=O)[C@H](Cc2cnc3ccccn23)NC(=O)[C@H](Cc2ccc(O)cc2)NC(=O)[C@H](CC(N)=O)NC(=O)[C@H](Cc2cn(CC(=O)O)c3ccccc23)NC(=O)[C@H](C(C)C)NC(=O)[C@H](Cc2cccc(Cl)c2)N(C)C(=O)[C@H](C(C)C)NC(=O)[C@H](C)NC(=O)CSC[C@@H](C(=O)NCCOCCOCCOCCOCCC(N)=O)NC(=O)[C@H](Cc2ccc(O)cc2)N(C)C(=O)[C@H](Cc2cccc(C(=O)O)c2)NC(=O)[C@H](CCCNC(=N)N)NC(=O)[C@H](CCC(N)=O)NC(=O)[C@H]([C@@H](C)CC)NC1=O` [compound 91] ({CH2CO}-AV[NMePhe(3-Cl)]V[Trp(1-CH2COOH)]NY[Ala(imidazo(1,2-a)pyr3yl)][Nva(3-Et)]IQR[Phe(3-COOH)][NMeY]C[PEG4]-NH2; thioether N-15), the “dependency koff pH6.0/7.4” value came out at 9.32.
With `CCC(CC)[C@@H]1NC(=O)[C@H](Cc2ccc(OCC(=O)O)cc2)NC(=O)[C@H](Cc2ccc(O)cc2)NC(=O)[C@H](CC(N)=O)NC(=O)[C@H](Cc2cn(CC(=O)O)c3ccccc23)NC(=O)[C@H](C(C)C)NC(=O)[C@H](Cc2cccc(Cl)c2)N(C)C(=O)[C@H](C(C)C)NC(=O)[C@H](C)NC(=O)CSC[C@@H](C(=O)NCCOCCOCCOCCOCCC(N)=O)NC(=O)[C@H](Cc2ccc(OC)cc2)N(C)C(=O)[C@H](Cc2cccc(C(=O)O)c2)NC(=O)[C@H](CCCNC(=N)N)NC(=O)[C@H](CCC(N)=O)NC(=O)[C@H]([C@@H](C)CC)NC1=O` [compound 93] ({CH2CO}-AV[NMePhe(3-Cl)]V[Trp(1-CH2COOH)]NYY(Carboxymethyl)[Nva(3-Et)]IQR[Phe(3-COOH)][NMeY](Me)C[PEG4]-NH2; thioether N-15), the “dependency koff pH6.0/7.4” value stood at 7.99.

A further test deals with T1, human transferrin receptor (hTfR). Description: SPR measurement under pH 7.4 conditions (Biacore T200, CM3 chip, hTfR captured by His Tag antibody). Format: binding. The following applies: SPR, pH 7.4; read-out: hTfR SPR pH7.4 KD. A general note: Surface plasmon resonance follows binding to a sensor surface in real time, without labels.
Broadly, the Kd is the free concentration of one partner at which half of the binding sites on the other are occupied at equilibrium, for simple one-to-one binding. For `CC[C@H](C)[C@@H]1NC(=O)[C@H](Cc2ccc(OCC(=O)O)cc2)NC(=O)[C@H](Cc2ccc(O)cc2)NC(=O)[C@H](CC(N)=O)NC(=O)[C@H](Cc2c[nH]c3ccccc23)NC(=O)[C@H](C(C)C)NC(=O)[C@H](Cc2cccc(Cl)c2)N(C)C(=O)[C@H](C(C)C)NC(=O)[C@H](C)NC(=O)CSC[C@@H](C(=O)NCCOCCOCCOCCOCCC(N)=O)NC(=O)[C@H](Cc2ccc(O)cc2)N(C)C(=O)[C@H](Cc2cccc(C(=O)O)c2)NC(=O)[C@H](CCCNC(=N)N)NC(=O)[C@H](CCC(N)=O)NC(=O)[C@H]([C@@H](C)CC)NC1=O` [compound 72] ({CH2CO}-AV[NMePhe(3-Cl)]VWNYY(Carboxymethyl)IIQR[Phe(3-COOH)][NMeY]C[PEG4]-NH2; thioether N-15), the Kd amounted to 3.34 nM.

Values taken from patent EP4667483A1, “HUMAN TRANSFERRIN RECEPTOR-BINDING PEPTIDE” (JCR Pharmaceuticals Co., Ltd., priority 2023, dated 2024).
